Earlier results as cited in US20100009005A1, “Novel acetysalicylic acid formulations” (Flamel Technologies ,S.A., priority 2005, published 2010).

Q: Which results are given for `CS(=O)(=O)c1ccc(C2=C(c3ccccc3)C(=O)OC2)cc1` [rofecoxib]?
A: time of peak plasma concentrations (after oral administration): 2 to 3 h; half life (in vivo): about 17 hours
